We go through eleven compounds from the supplement of paper PMC11451515.

Holding throughout (experiment): AUC of viability dose-response curve (% viability x log10 dose units); higher = less sensitive
What all share (settings): 48 h

One assay has as its system P12-Ichikawa. The gist of the method: (§1)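 Viability of medium-adapted leukemia cells was measured by CellTiter-Glo One luminescence after 48 h at 37°C with library compounds in DMSO. Doses were 11 threefold steps from 47 μM to 0.79 nM, in 1536-well plates at 500 or 1000 cells/well. Signals were normalised per plate to DMSO and cell-free wells and fitted with a four-parameter log-logistic model on log10 dose. Area under the curve was integrated by trapezoidal rule, with curves exceeding full viability scaled and failed quality-control curves removed.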

The subject of a further assay is NOMO1. The gist of the method: as §1
The next assay concerns SEM cells. The gist of the method: as §1
Where [1] appears, read: RPMI 5 mM glucose + 10% dialyzed FBS.

Each structure is given as a SMILES string.

Turning to `CN(C)CCCC1(c2ccc(F)cc2)OCc2cc(C#N)ccc21` (centres undefined), the “AUC of viability dose-response curve” value with P12-Ichikawa (HPLM + 10% dialyzed FBS) was determined as 433; in the assay on P12-Ichikawa (RPMI 5 mM glucose + 10% FBS), 415; in the assay with P12-Ichikawa (setting [1]), 425; in the assay on NOMO1 (HPLM + 10% dialyzed FBS) it was 425; in the assay with NOMO1 (RPMI 5 mM glucose + 10% FBS), 431; with NOMO1 (setting [1]), 392. Besides, the “AUC of viability dose-response curve” value with SEM cells (HPLM + 10% dialyzed FBS) was 447; with SEM cells (RPMI 5 mM glucose + 10% FBS) it was 426; with SEM cells (setting [1]), 432.

Take `CCC(C)CCCCC(=O)N[C@@H](CCN)C(=O)NC(C(=O)N[C@H](CCN)C(=O)N[C@@H]1CCNC(=O)C([C@@H](C)O)NC(=O)[C@@H](CCN)NC(=O)[C@@H](CCN)NC(=O)[C@@H](CC(C)C)NC(=O)[C@H](Cc2ccccc2)NC(=O)[C@H](CCN)NC1=O)[C@@H](C)O` (some centres undefined): the “AUC of viability dose-response curve” value in the assay with P12-Ichikawa (HPLM + 10% dialyzed FBS) was 461; in the assay with P12-Ichikawa (RPMI 5 mM glucose + 10% FBS), 457; in the assay on P12-Ichikawa (setting [1]) it was 445; in the assay on NOMO1 (HPLM + 10% dialyzed FBS), 457; with NOMO1 (RPMI 5 mM glucose + 10% FBS) it was 451; in the assay with NOMO1 (setting [1]), 470. The “AUC of viability dose-response curve” value amounted to 429 in the assay with SEM cells (HPLM + 10% dialyzed FBS), 471 in the assay on SEM cells (RPMI 5 mM glucose + 10% FBS) and 434 in the assay on SEM cells (setting [1]).

Take `Nc1ccc(C(=O)c2cc3c(ccc4ccccc43)[nH]2)cc1`: the “AUC of viability dose-response curve” value in the assay on P12-Ichikawa (HPLM + 10% dialyzed FBS) amounted to 348; with P12-Ichikawa (RPMI 5 mM glucose + 10% FBS), 359; in the assay with P12-Ichikawa (setting [1]), 359; with NOMO1 (HPLM + 10% dialyzed FBS), 412; with NOMO1 (RPMI 5 mM glucose + 10% FBS), 425; with NOMO1 (setting [1]) it was 417. Also, the “AUC of viability dose-response curve” value in the assay on SEM cells (HPLM + 10% dialyzed FBS) amounted to 374; with SEM cells (RPMI 5 mM glucose + 10% FBS) it was 373; in the assay on SEM cells (setting [1]), 361.

For the compound `CC(C)(N)C(=O)N[C@H](COCc1ccccc1)C(=O)N1CCC2(CC1)CN([S+](C)(=O)[O-])c1ccccc12`, the “AUC of viability dose-response curve” value with P12-Ichikawa (HPLM + 10% dialyzed FBS) turned out to be 445; in the assay on P12-Ichikawa (RPMI 5 mM glucose + 10% FBS) it was 440; with P12-Ichikawa (setting [1]) it was 438; in the assay on NOMO1 (HPLM + 10% dialyzed FBS) it was 402; with NOMO1 (RPMI 5 mM glucose + 10% FBS) it was 460; with NOMO1 (setting [1]), 446. Also, the results for the “AUC of viability dose-response curve” value in the assay on SEM cells (HPLM + 10% dialyzed FBS), in the assay on SEM cells (RPMI 5 mM glucose + 10% FBS) and in the assay on SEM cells (setting [1]) were 448, 437 and 419, respectively.

On to `CC(C)(N)c1ccc(-c2nc3ccccc3nc2-c2ccccc2)cc1`, for which the “AUC of viability dose-response curve” value in the assay on P12-Ichikawa (HPLM + 10% dialyzed FBS) worked out at 168; with P12-Ichikawa (RPMI 5 mM glucose + 10% FBS) it was 224; in the assay with P12-Ichikawa (setting [1]), 219; with NOMO1 (HPLM + 10% dialyzed FBS) it was 177; in the assay on NOMO1 (RPMI 5 mM glucose + 10% FBS) it was 220; in the assay on NOMO1 (setting [1]) it was 241. Also, the “AUC of viability dose-response curve” value in the assay on SEM cells (HPLM + 10% dialyzed FBS) is 196; in the assay with SEM cells (RPMI 5 mM glucose + 10% FBS) it was 145; in the assay with SEM cells (setting [1]) it was 181.

Turning to `NC(=O)c1cccc(-c2cc(Nc3ccc(OC(F)(F)F)cc3)ncn2)c1`, the “AUC of viability dose-response curve” value is 469 with P12-Ichikawa (HPLM + 10% dialyzed FBS); 466 with P12-Ichikawa (RPMI 5 mM glucose + 10% FBS); 460 with P12-Ichikawa (setting [1]); 457 in the assay on NOMO1 (HPLM + 10% dialyzed FBS); 436 with NOMO1 (RPMI 5 mM glucose + 10% FBS); 428 in the assay on NOMO1 (setting [1]). For the same compound, the “AUC of viability dose-response curve” value in the assay on SEM cells (HPLM + 10% dialyzed FBS) stood at 441; in the assay on SEM cells (RPMI 5 mM glucose + 10% FBS), 464; in the assay with SEM cells (setting [1]), 423.

As for `COc1cc(NCc2ccc3nc(N)nc(N)c3c2C)cc(OC)c1OC`, the “AUC of viability dose-response curve” value came out at 346 in the assay with P12-Ichikawa (HPLM + 10% dialyzed FBS); 383 with P12-Ichikawa (RPMI 5 mM glucose + 10% FBS); 350 in the assay with P12-Ichikawa (setting [1]); 347 in the assay with NOMO1 (HPLM + 10% dialyzed FBS); 397 with NOMO1 (RPMI 5 mM glucose + 10% FBS); 380 with NOMO1 (setting [1]). Also, the entries for the “AUC of viability dose-response curve” value with SEM cells (HPLM + 10% dialyzed FBS), in the assay with SEM cells (RPMI 5 mM glucose + 10% FBS) and in the assay on SEM cells (setting [1]) were 345, 370 and 336, respectively.

For `CCCCCCNC(=O)N1\C=C(F)/C(=O)NC1=O`, the “AUC of viability dose-response curve” value was 458 in the assay with P12-Ichikawa (HPLM + 10% dialyzed FBS); 459 in the assay on P12-Ichikawa (RPMI 5 mM glucose + 10% FBS); 456 with P12-Ichikawa (setting [1]); 451 in the assay with NOMO1 (HPLM + 10% dialyzed FBS); 468 in the assay on NOMO1 (RPMI 5 mM glucose + 10% FBS); 443 with NOMO1 (setting [1]). Moreover, the “AUC of viability dose-response curve” value came to 466 in the assay on SEM cells (HPLM + 10% dialyzed FBS), 458 with SEM cells (RPMI 5 mM glucose + 10% FBS) and 435 in the assay on SEM cells (setting [1]).

As to `O=C(O)CCCCCC(=O)NN=C1CCCC1`, the “AUC of viability dose-response curve” value with P12-Ichikawa (HPLM + 10% dialyzed FBS) was determined as 467; in the assay with P12-Ichikawa (RPMI 5 mM glucose + 10% FBS), 468; in the assay on P12-Ichikawa (setting [1]) it was 447; with NOMO1 (HPLM + 10% dialyzed FBS), 433; in the assay with NOMO1 (RPMI 5 mM glucose + 10% FBS), 414; with NOMO1 (setting [1]) it was 453. In addition, the “AUC of viability dose-response curve” value in the assay on SEM cells (HPLM + 10% dialyzed FBS) came out at 456; with SEM cells (RPMI 5 mM glucose + 10% FBS) it was 468; in the assay on SEM cells (setting [1]) it was 461.

For `COC1=CC=C(C=C1)/C2=C(O)/C(=O)C3=C(O)C=C(O)C(=C3O2)CC=C(C)C`, the “AUC of viability dose-response curve” value with P12-Ichikawa (HPLM + 10% dialyzed FBS) amounted to 467; with P12-Ichikawa (RPMI 5 mM glucose + 10% FBS) it was 473; in the assay with P12-Ichikawa (setting [1]), 468; in the assay with NOMO1 (HPLM + 10% dialyzed FBS), 464; in the assay with NOMO1 (RPMI 5 mM glucose + 10% FBS), 454; with NOMO1 (setting [1]), 464. For the same compound, the “AUC of viability dose-response curve” value in the assay on SEM cells (HPLM + 10% dialyzed FBS) worked out at 457; in the assay on SEM cells (RPMI 5 mM glucose + 10% FBS) it was 434; in the assay on SEM cells (setting [1]) it was 467.

With `Cc1nc(-c2ccc(OCC(C)C)c(C#N)c2)sc1C(=O)O`, the “AUC of viability dose-response curve” value in the assay on P12-Ichikawa (HPLM + 10% dialyzed FBS) was found to be 467; in the assay with P12-Ichikawa (RPMI 5 mM glucose + 10% FBS) it was 424; with P12-Ichikawa (setting [1]), 437; with NOMO1 (HPLM + 10% dialyzed FBS), 461; with NOMO1 (RPMI 5 mM glucose + 10% FBS), 471; in the assay with NOMO1 (setting [1]) it was 468. The “AUC of viability dose-response curve” value turned out to be 475 in the assay with SEM cells (HPLM + 10% dialyzed FBS), 472 in the assay on SEM cells (RPMI 5 mM glucose + 10% FBS) and 458 in the assay on SEM cells (setting [1]).
